Molecules are shown by their SMILES. “And” between values parts separate entries of the source, which are not always exact repeats. Equal values may be shown once. Read-outs that look alike come from different tables or passages of the source.

The text below walks through data of patent publication US20030096433A1, “Homogeneous fluorescence assay” (Evotec Analytical Systems GmbH, priority 1999, published 2003).

One experiment has as its target T1, p60src kinase (Homo sapiens, UniProt P12931).
T1 construct: purchased Upstate Biotechnology
Nature of the experiment: Protein tyrosine kinase pharmaceutical screening assay. The experiment is classed as biochemical. An excerpt: At first p60src (Upstate Biotechnology) phosphorylates the P2 substrate. The phos-phorylated and biotinylated P1 peptide is depicted as string of beads with attached “P” (phosphate) and triangle (biotin). The phosphorylated P2 competes with P1 for binding to the TRITC-labeled anti-phosphotyrosine antibody. In absence of enzyme activity all fluorescent antibodies are bound to carrier particles via P1 which means maximal binding to carrier particles and correspondingly minimum particle number. The phosphorylated P2 catches the fluorescent antibody preventing the formation of complexes. In that case no binding to carrier particles occurs and maximal particle number will be measured. Potential inhibitors are incubated with the enzyme before the enzyme reaction is started by adding a mixture of P2 and ATP.

Experiment [1] addresses anti-theophylline antibody. Conditions: read-out: K2 (KD value for the competitor).
For a further experiment, the target named is anti-estradiol antibody. Briefly: 17-β-Estradiol competitive carrier particle assay (FCS). The class given is binding. Conditions: for IC50: competition with TAMRA-estradiol, carrier particles 160 nm, FCS. From the text: The anti-estradiol-antibody was kindly provided by Dr. Schumacher (Institute of Fertility Research, Hamburg). 17-β-estradiol was obtained from Sigma. The protein A coated carrier particles (Protein A Ferrofluid™) with a mean diameter of 160 nm were from Immunicon. The optical set-up was the same as described in Example 1. […] Data evaluation and fitting procedures were the same as described in Example 1. The concentration of the conjugate (TAMRA-estradiol), the corresponding antibody and the carrier particles were kept constant in a specific series of experiments. […] The competitive assays were carried out as follows: The TAMRA conjugate of estradiol was mixed with the corresponding unlabelled molecules. […] Some experiments with JA190-estradiol conjugates were carried out in E-NAP buffer (200 mM sodium acetate, 150 mM NaCl, 0.2% BSA, pH 4). […] All estradiol conjugates, except for the BODIPY™-derivative, bound to an anti-estradiol antibody with similar affinity. […] All other conjugate-antibody interactions remained strong. […] TAMRA-estradiol was used for further assay evaluation.

In experiment [2] the test system is anti-estradiol antibodies. Briefly: Estradiol competition assay (fluorescence intensity distribution analysis). The experiment is classed as binding, Rabbit. Conditions: 5 nM estradiol-Tamra, 0.18 nM carrier particles, 10 x 2 s.

For `Nc1ncnc2c1ncn2[C@@H]1O[C@H](COP(=O)(O)OP(=O)(O)OP(=O)(O)O)[C@@H](O)[C@H]1O` [ATP], the Michaelis constant (Km) on p60src kinase (turn over velocity versus ATP concentration, FIG. 13, read-out: Michaelis constant KM) was determined as 16.2 ± 4 µM.

Regarding `Cn1c(=O)c2[nH]cnc2n(C)c1=O` [theophylline, Theophylline], the Kd was determined as 0.083 nM in experiment [1] (fit with K1 fixed at 10^−11 M); 0.0025 nM in experiment [1] (simultaneous fit of gB and binding degree to equations 1 and 8, K1 variable).

For the compound `CN(C)c1ccc2c(-c3ccc(C(=O)NCCOCCOCCNC(=O)CON=C4CC5C(CCC6(C)C(O)CCC56)c5ccc(O)cc54)cc3C(=O)[O-])c3ccc(N(C)C)cc3[o+]c2c1` (centres unmarked) [TAMRA-estradiol], the Kd at anti-estradiol antibody (simultaneous fit of gB and binding degree to equations 1 and 8, read-out: K1 (KD value for the conjugate)) amounted to 0.0014 nM.

As for `O=CN/C=C/c1cc(O)ccc1O` [Erbstatin], the “Activity on p60src kinase (in words)” value on p60src kinase (dose-response curves, FIG. 12) is “inactive”.

With `C[C@]12CC[C@@H]3c4ccc(O)cc4CC[C@H]3[C@@H]1CC[C@@H]2O` [estradiol, 17-β-estradiol], the IC50 in the experiment on anti-estradiol antibody (read-out: IC50 using the binding degree) was 20 nM; with anti-estradiol antibody (read-out: IC50 using the correlation amplitude gB), 3 nM; in experiment [2] (FIG. 8A, read-out: IC50 from I1 (intensity of free conjugate), hyperbolic fit), 11.9 ± 2.4 nM; in experiment [2] (FIG. 8B, read-out: IC50 from I2 (intensity of carrier particles with bound conjugate), hyperbolic fit) it was 13.3 nM and 13.2 nM; in experiment [2] (FIG. 8C, read-out: IC50 from I2/(I1+I2), hyperbolic fit), 8.8 ± 1.1 nM.

With `Cc1cc(O)c2c(c1)C(=O)c1cc(O)cc(O)c1C2=O` [Emodin], the IC50 on p60src kinase (dose-response curves, FIG. 12) was in the range of 50000 to 100000 nM.

As usually defined, the Km is the concentration of substrate that gives half-maximal velocity. The Kd is the concentration at which binding is half-saturated.
